Experimental findings from ChEMBL document CHEMBL1130317 (J Med Chem, 1997) are described below.

For assay [1], the target named is Aldo-keto reductase family 1 member B1 (Rattus norvegicus, UniProt P07943). Nature of the assay: Inhibitory activity against rat lens aldose reductase(AR).
The species named for the next assay is Rattus norvegicus. Nature of the assay: Ratio of IC50 value of rat kidney ALR to rat lens AR. The format is tissue-based. The note with it: Lens of camera-type eye.
The target of assay [2] is T1, Aldo-keto reductase family 1 member A1 (Rattus norvegicus, UniProt P51635).
T1 sequence (P51635 whole entry): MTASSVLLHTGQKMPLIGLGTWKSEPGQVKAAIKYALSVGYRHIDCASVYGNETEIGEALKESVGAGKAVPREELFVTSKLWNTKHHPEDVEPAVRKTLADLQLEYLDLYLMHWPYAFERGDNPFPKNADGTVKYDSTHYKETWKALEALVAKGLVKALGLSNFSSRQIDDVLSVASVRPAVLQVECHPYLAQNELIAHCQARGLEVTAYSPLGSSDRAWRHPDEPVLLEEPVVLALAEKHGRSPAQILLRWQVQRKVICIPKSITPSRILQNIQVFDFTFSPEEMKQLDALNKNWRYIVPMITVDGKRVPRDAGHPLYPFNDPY
Nature of the assay: In vitro inhibitory activity against rat kidney aldehyde reductase(ALR).

The target in assay [3] is T2, Aldo-keto reductase family 1 member A1 (Rattus norvegicus) (UniProt P51635).
T2 sequence (whole entry): T1 sequence (P51635 whole entry)
Nature of the assay: Percent inhibition of rat kidney Aldehyde reductase (ALR) at 1x10E-4 M.

Assay [4] addresses Aldo-keto reductase family 1 member B1 (Rattus norvegicus) (UniProt P07943). In words: Inhibitory activity against rat lens aldose reductase(AR) at the concentration of 1*10e-7 M.

The term IC50 denotes the concentration that inhibits the measured activity by half. Consider `O=C(O)CN1C(=O)C(=O)N(Cc2nc3c(Cl)cccc3s2)C1=O`, for which the IC50 in assay [1] was found to be 0.012 µM; in assay [2] it was 72 µM. For the same compound, the Ratio in the assay listed under Rattus norvegicus was 6000.
Usually inhibition stands for the relative decrease from the control value, in per cent. A higher inhibition goes with strong suppression. Take `O=C(O)CN1C(=O)C(=O)N(Cc2cccc([N+](=O)[O-])c2)C1=O`: the inhibition in assay [3] is 37.3%.
In the case of `O=C(O)CN1CC(=O)N(Cc2nc3cc(Cl)ccc3s2)C1=O`, in assay [4], the inhibition came to 47.5%.
In assay [3], `O=C(O)Cn1ccc(=O)n(Cc2nc3cc(Cl)ccc3s2)c1=O` showed an inhibition of 32%. In addition, the results for the IC50 in assay [1] and in assay [2] were 0.0057 µM and more than 100 µM, respectively. The Ratio in the assay listed under Rattus norvegicus is more than 17500.
On the same counts, the results for `O=C(O)CN1CC(=O)N(Cc2nc3c(Cl)cccc3s2)C1=O` are 37%, 0.062 µM, more than 100 µM and more than 1610.
As to `O=C(O)CN1C(=O)C(=O)N(Cc2cccc([N+](=O)[O-])c2)C1=S`, the values for the IC50 in assay [1] and in assay [2] were 0.025 µM and 28 µM, respectively. Also, the Ratio in the assay filed under Rattus norvegicus is 1120.
As for `O=C(O)Cn1c(=O)ccn(Cc2cccc([N+](=O)[O-])c2)c1=O`, the inhibition in assay [3] stood at 11.8%; in assay [4], 27.8%. The IC50 in assay [2] is more than 100 µM.
Take `O=C(O)CN1C(=O)CN(Cc2cccc([N+](=O)[O-])c2)C1=O`: in assay [4], the inhibition was 4.6%. Also, the IC50 in assay [2] was more than 100 µM.
In the case of `C=C1C(=O)N(CC(=O)O)C(=O)N1Cc1cccc([N+](=O)[O-])c1`, the figures for the concentration for half-maximal inhibition (IC50) in assay [1] and in assay [2] were 0.032 µM and 58 µM, respectively. For the same compound, the Ratio in the assay listed under Rattus norvegicus was 1810.
With `O=C(O)CN1C(=O)C(O)N(Cc2cccc([N+](=O)[O-])c2)C1=O` (configuration not stated), the results for the inhibition in assay [3] and in assay [4] were 19% and 5%, respectively. In assay [2], this compound gave an IC50 of more than 100 µM.
Compound `O=C(O)Cn1ccc(=O)n(Cc2nc3c(Cl)cccc3s2)c1=O` showed an inhibition in assay [3] of 39.3%. The IC50 was 0.011 µM in assay [1] and more than 100 µM in assay [2]. For the same compound, the Ratio in the assay listed under Rattus norvegicus is more than 9090.
As to `O=C(O)CN1C(=O)C(=O)N(Cc2ccc(Cl)c([N+](=O)[O-])c2)C1=O`, in assay [3], the inhibition came to 39.5%. In addition, the IC50 in assay [1] was 0.016 µM; in assay [2], more than 100 µM. Also, the Ratio in the assay filed under Rattus norvegicus was more than 6250.
`C=C1N(CC(=O)O)C(=O)C(=O)N1Cc1cccc([N+](=O)[O-])c1`: the inhibition in assay [3] came to 12.4%; in assay [4], 17.7%. This compound showed an IC50 in assay [2] of more than 100 µM.
The matching figures for `O=C(O)CN1C(=O)CC(=O)N(Cc2cccc([N+](=O)[O-])c2)C1=O`: 33.5%, 1.5% and more than 100 µM.
With `O=C(O)Cn1ccc(=O)n(Cc2cccc([N+](=O)[O-])c2)c1=O`, the inhibition in assay [3] was found to be 17.4%. Moreover, the IC50 in assay [1] is 0.034 µM; in assay [2], more than 100 µM. Also, the Ratio in the assay filed under Rattus norvegicus is more than 2940.
Turning to `O=C(O)CN1C(=O)N(Cc2cccc([N+](=O)[O-])c2)C(=O)C1O` (configuration not stated), the values for the inhibition in assay [3] and in assay [4] were 11% and 44%, respectively. Moreover, in assay [2], the IC50 was more than 100 µM.
In turn, `O=C(O)CN1CC(=O)N(Cc2ccc(Cl)c([N+](=O)[O-])c2)C1=O` came in with an inhibition in assay [3] of 1.6%. For the same compound, the IC50 was 0.024 µM in assay [1] and more than 100 µM in assay [2]. In the assay filed under Rattus norvegicus, the Ratio is more than 4170.
On to `O=C(O)Cn1ccc(=O)n(Cc2ccc(Cl)c([N+](=O)[O-])c2)c1=O`, for which, in assay [3], the inhibition came to 26.5%. Further, the IC50 in assay [1] is 0.025 µM; in assay [2], more than 100 µM. In addition, in the assay filed under Rattus norvegicus, the Ratio was more than 4000.
For `O=C(O)CN1C(=O)C(=O)N(Cc2nc3cc(Cl)ccc3s2)C1=O`, the IC50 was determined as 0.015 µM in assay [1] and 58 µM in assay [2]. Moreover, in the assay listed under Rattus norvegicus, the Ratio is 3870.
For `O=C(O)CN1CC(=O)N(Cc2cccc([N+](=O)[O-])c2)C1=O`, the inhibition came out at 3.8% in assay [3] and 38.2% in assay [4]. The same compound returned an IC50 in assay [2] of more than 100 µM.
